Experimental data as given in PubChem BioAssay (NCI).
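Briefly, cells in 96-well plates were exposed to five compound concentrations for 48 h, and endpoints were estimated by linear interpolation. TGI is the concentration that stops growth completely.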

How the values were obtained:
Assay in all cases: NCI tumour cell line growth inhibition, 48 h
SK-MEL-28 melanoma = tested on: SK-MEL-28 melanoma
786-0 renal = tested on: 786-0 renal
MALME-3M melanoma = tested on: MALME-3M melanoma
RPMI-8226 leukemia = tested on: RPMI-8226 leukemia
IGROV1 ovarian = tested on: IGROV1 ovarian
SF-268 CNS = tested on: SF-268 CNS
SF-295 CNS = tested on: SF-295 CNS
M14 melanoma = tested on: M14 melanoma
SK-MEL-5 melanoma = tested on: SK-MEL-5 melanoma
SN12C renal = tested on: SN12C renal
SNB-75 CNS = tested on: SNB-75 CNS

Compound | TGI (SK-MEL-28 melanoma) | TGI (786-0 renal) | TGI (MALME-3M melanoma) | TGI (RPMI-8226 leukemia) | TGI (IGROV1 ovarian) | TGI (SF-268 CNS) | TGI (SF-295 CNS) | TGI (M14 melanoma) | TGI (SK-MEL-5 melanoma) | TGI (SN12C renal) | TGI (SNB-75 CNS)
N#CC(C#N)=C1C(C#N)=C(N)NC12OCCO2 | > 100 µM | > 100 µM | > 100 µM | > 100 µM | > 100 µM | > 100 µM | > 100 µM | > 100 µM | > 100 µM | > 100 µM | –
Cc1ccc(S(=O)(=O)NNC(=O)c2cc(C)ccc2NC(=O)C23CC4CC(CC(C4)C2)C3)cc1 | – | 57.3 µM | 80.4 µM | > 100 µM | 30.6 µM | > 100 µM | > 100 µM | > 100 µM | > 100 µM | > 100 µM | –
CN(C)c1nc(N(C)C)nc(N(C)C23CC4CC(CC(C4)C2)C3)n1 | > 100 µM | > 100 µM | 95.7 µM | 74.9 µM | 58.8 µM | > 100 µM | > 100 µM | > 100 µM | – | – | 86 µM
COc1ccc2c(c1)C(N)=C(c1ccccc1)C2=O | > 100 µM | > 100 µM | > 100 µM | > 100 µM | > 100 µM | > 100 µM | > 100 µM | > 100 µM | > 100 µM | > 100 µM | 70 µM
Clc1ccc(Cc2nc3ccccc3nc2-c2cccc(Br)c2)cc1 | – | 3.48 µM | 22.5 µM | 3.81 µM | 3.49 µM | 44.9 µM | 31.2 µM | 5.17 µM | 27.5 µM | 10.1 µM | 35.7 µM
CO/C(=N\N=C\c1cccc(Cl)c1)c1ccncc1 | – | > 10 µM | > 10 µM | > 10 µM | – | > 10 µM | > 10 µM | > 10 µM | – | > 10 µM | –
c1ccc(CCNCc2ccco2)nc1 | > 100 µM | > 100 µM | > 100 µM | > 67.9 µM | > 100 µM | > 100 µM | > 100 µM | > 100 µM | > 100 µM | > 100 µM | > 100 µM
Cc1ccc(C(=O)O)c(CC2Cc3c(C)cccc3C2=O)c1 (stereo not drawn) | > 100 µM | > 100 µM | > 100 µM | > 100 µM | > 100 µM | > 100 µM | > 100 µM | > 100 µM | > 100 µM | > 100 µM | > 100 µM
Cc1ccc(C(C)(C)C[P+](C)(c2ccccc2)c2ccccc2)cc1 | 66.4 µM | – | > 48.8 µM | 6.7 µM | > 100 µM | > 100 µM | > 85.2 µM | – | 12.7 µM | > 86.3 µM | 50.8 µM
CC(=O)O[C@@H]1C[C@@]23C[C@@]24CC[C@H](OC2OCC(O)C(O)C2O)C(C)(C)[C@@H]4CC=C3[C@]2(C)C[C@@H]3OC4(C[C@@H](C)[C@@H]3[C@@]12C)OC(O)[C@@]1(C)O[C@@H]41 (stereo partly drawn) | > 100 µM | 63.1 µM | > 100 µM | 47.1 µM | > 100 µM | > 100 µM | 80.6 µM | > 100 µM | 42.7 µM | > 100 µM | 58.7 µM
C=C(CCC(C)C1CCC2C3=C(C(=O)CC21C)C1(C)CCC(=O)[C@@H](C)C1CC3=O)C(C)C(=O)O (stereo partly drawn) | > 100 µM | 37.8 µM | > 100 µM | – | > 100 µM | > 100 µM | > 100 µM | > 100 µM | > 100 µM | > 100 µM | > 100 µM
